Data reported in patent US20060247227A1, “Substituted piperidines as histamine h3 receptor ligands” (priority 2003, published 2006).
Where a name gives a salt, the structure may show the parent alone.

Target: T1, histamine H3 receptor (Homo sapiens, UniProt Q9Y5N1)
T1 construct: expressed in transfected cells; host or cells: CHO K1 cells carrying pSwitch, transfected with pGeneH3 and induced with mifepristone; clone 3H3; membranes
Test: Histamine H3 functional antagonist assay ([35S]GTPγS, SPA, membranes of CHO K1 cells expressing the receptor)
Type: biochemical
Conditions: histamine-stimulated GTPγS binding, membranes with human H3
Text: A membrane preparation containing histamine H3 receptors may be prepared in accordance with the following procedures:
(i) Generation of Histamine H3 Cell Line
DNA encoding the human histamine H3 gene (Huvar, A. et al. (1999) Mol. Pharmacol. 55(6), 1101-1107) was cloned into a holding vector, pCDNA3.1 TOPO (InVitrogen) and its cDNA was isolated from this vector by restriction digestion of plasmid DNA with the enzymes BamH1 and Not-1 and ligated into the inducible expression vector pGene (InVitrogen) digested with the same enzymes. The GeneSwitch™ system (a system where in transgene expression is switched off in the absence of an inducer and switched on in the presence of an inducer) was performed as described in U.S. Pat. Nos. 5,364,791; 5,874,534; and 5,935,934. Ligated DNA was transformed into competent DH5α E. coli host bacterial cells and plated onto Luria Broth (LB) agar containing Zeocin™ (an antibiotic which allows the selection of cells expressing the sh ble gene which is present on pGene and pSwitch) at 50 μg ml^−1. Colonies containing the re-ligated plasmid were identified by restriction analysis. DNA for transfection into mammalian cells was prepared from 250 ml cultures of the host bacterium containing the pGeneH3 plasmid and isolated using a DNA preparation kit (Qiagen Midi-Prep) as per manufacturers guidelines (Qiagen).
CHO K1 cells previously transfected with the pSwitch regulatory plasmid (InVitrogen) were seeded at 2×10e6cells per T75 flask in Complete Medium, containing Hams F12 (GIBCOBRL, Life Technologies) medium supplemented with 10% v/v dialysed foetal bovine serum, L-glutamine, and hygromycin ([…]), 24 hours prior to use. Plasmid DNA was transfected into the cells using Lipofectamine plus according to the manufacturers guidelines (InVitrogen). 48 hours post transfection cells were placed into complete medium supplemented with […] Zeocin™.
10-14 days post selection 10 nM Mifepristone (InVitrogen), was added to the culture medium to induce the expression of the receptor. 18 hours post induction cells were detached from the flask using ethylenediamine tetra-acetic acid (EDTA; 1:5000; InVitrogen), following several washes with phosphate buffered saline pH 7.4and resuspended in Sorting Medium containing Minimum Essential Medium (MEM), without phenol red, and supplemented with Earles salts and 3% Foetal Clone II (Hyclone). Approximately 1×10e7 cells were examined for receptor expression by staining with a rabbit polyclonal antibody, 4a, raised against the N-terminal domain of the histamine H3 receptor, incubated on ice for 60 minutes, followed by two washes in sorting medium. Receptor bound antibody was detected by incubation of the cells for 60 minutes on ice with a goat anti rabbit antibody, conjugated with Alexa 488 fluorescence marker (Molecular Probes). Following two further washes with Sorting Medium, cells were filtered through a 50 μm Filcon™ (BD Biosciences) and then analysed on a FACS Vantage SE Flow Cytometer fitted with an Automatic Cell Deposition Unit. Control cells were non-induced cells treated in a similar manner. Positively stained cells were sorted as single cells into 96-well plates, containing Complete Medium containing 500 μg ml^−1 Zeocin™ and allowed to expand before reanalysis for receptor expression via antibody and ligand binding studies. One clone, 3H3, was selected for membrane preparation.
(ii) Membrane Preparation from Cultured Cells
All steps of the protocol are carried out at 4° C. and with pre-cooled reagents. The cell pellet is resuspended in 10 volumes of buffer A2 containing 50 mM N-2-hydroxyethylpiperazine-N′-2-ethanesulfonic acid (HEPES) (pH 7.40) supplemented with […] leupeptin (acetyl-leucyl-leucyl-arginal; Sigma L2884), 25 μg/ml bacitracin (Sigma B0125), 1 mM ethylenediamine tetra-acetic acid (EDTA), 1 mM phenylmethylsulfonyl fluoride (PMSF) and 2×10e-6M pepstain A (Sigma). […]

T1 sequence (Q9Y5N1 whole entry): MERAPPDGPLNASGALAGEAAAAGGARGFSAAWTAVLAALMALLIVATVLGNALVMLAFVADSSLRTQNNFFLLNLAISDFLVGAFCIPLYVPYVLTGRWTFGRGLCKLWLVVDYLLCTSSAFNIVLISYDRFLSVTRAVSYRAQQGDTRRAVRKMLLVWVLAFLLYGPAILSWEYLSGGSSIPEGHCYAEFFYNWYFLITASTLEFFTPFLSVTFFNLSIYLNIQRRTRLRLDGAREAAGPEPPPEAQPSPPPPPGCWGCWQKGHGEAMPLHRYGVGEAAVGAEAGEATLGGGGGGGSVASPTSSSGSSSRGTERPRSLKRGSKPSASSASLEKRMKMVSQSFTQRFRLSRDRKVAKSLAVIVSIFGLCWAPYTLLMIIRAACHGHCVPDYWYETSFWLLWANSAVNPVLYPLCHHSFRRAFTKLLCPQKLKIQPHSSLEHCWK

Row | SMILES | Ki [nM]
1 | CNC(=O)c1cccc(N2CCC(OC3CCN(C(C)C)CC3)CC2)n1 [Example E58] | < 10
2 | CC(C)N1CCC(OC2CCN(c3cccc(C(=O)N4CCCC4)n3)CC2)CC1 [Example E60] | < 10
3 | CC(C)N1CCC(OC2CCN(c3cccc(C(=O)N4CCOCC4)n3)CC2)CC1 [Example E61] | < 10
4 | CN(C)C(=O)c1cccc(N2CCC(OC3CCN(C4CCC4)CC3)CC2)n1 [Example E63] | < 10
5 | O=C(c1cccc(N2CCC(OC3CCN(C4CCC4)CC3)CC2)n1)N1CCCC1 [Example E64] | < 10
6 | O=C(c1cccc(N2CCC(OC3CCN(C4CCC4)CC3)CC2)n1)N1CCOCC1 [Example E65] | < 10
7 | CC(C)NC(=O)c1cc(N2CCC(OC3CCN(C4CCC4)CC3)CC2)ccn1 [Example E67] | < 10
8 | O=C(c1cc(N2CCC(OC3CCN(C4CCC4)CC3)CC2)ccn1)N1CCCCC1 [Example E69] | < 10
9 | CC(C)N1CCC(OC2CCN(c3cnc(C(=O)NC4CCC4)cn3)CC2)CC1 [Example E79] | ≤ 1
10 | CC(C)N1CCC(OC2CCN(c3ccc(C#N)nc3)CC2)CC1 [Example E80, 5-(4-{[1-(1-Methylethyl)-4-piperidinyl]oxy)-1-piperidinyl)-2-pyridinecarbonitrile hydrochloride] | ≤ 1
11 | CC(C)N1CCC(OC2CCN(c3ccc(C(F)(F)F)nc3)CC2)CC1 [Example E81, 5-{4-[(1-Methylethyl-4-piperidinyl)oxy]-1-piperidinyl}-2-(trifluoromethyl)pyridine hydrochloride] | ≤ 1
12 | CC(C)N1CCC(OC2CCN(c3ccc(C(F)(F)F)nn3)CC2)CC1 [Example E83, 3-(4-{[1-(1-Methylethyl)-4-piperidinyl]oxy}-1-piperidinyl)-6-(trifluoromethyl)pyridazine] | < 10
13 | FC(F)(F)c1cnc(N2CCC(OC3CCN(C4CCC4)CC3)CC2)cn1 [Example E84, 2-{4-[(1-Cyclobutyl-4-piperidinyl)oxy]-1-piperidinyl}-5-(trifluoromethyl)pyrazine hydrochloride] | ≤ 1
14 | CC(C)N1CCC(OC2CCN(c3cnc(C(F)(F)F)cn3)CC2)CC1 [Example E85, 2-(4-[1-(1-Methylethyl)-4-piperidinyl]oxy}-1-piperidinyl)-5-(trifluoromethyl)pyrazine hydrochloride] | ≤ 1
15 | FC(F)(F)c1ccc(N2CCC(OC3CCN(C4CCC4)CC3)CC2)nc1 [Example E86, 2-{4-[(1-Cyclobutyl-4-piperidinyl)oxy]-1-piperidinyl}-5-(trifluoromethyl)pyridine hydrochloride] | ≤ 1
16 | CC(C)N1CCC(OC2CCN(c3ccc(C(F)(F)F)cn3)CC2)CC1 [Example E87, 2-(4-{[1-(1-Methylethyl)-4-piperidinyl]oxy}-1-piperidinyl)-5-(trifluoromethyl)pyridine hydrochloride] | < 10
17 | CC(C)N1CCC(OC2CCN(c3cnc(C(F)(F)F)nc3)CC2)CC1 [Example E89, 5-(4-{[1-(1-Methylethyl)-4-piperidinyl]oxy}-1 piperidinyl)-2-(trifluoromethyl) pyrimidine] | ≤ 1
18 | CCC(=O)c1ccc(N2CCC(OC3CCN(C4CCC4)CC3)CC2)cc1 [Example E90, 1-(4-{4-[(1-Cyclobutyl-4-piperidinyl)oxy]-1-piperidinyl}phenyl)-1-propanone] | ≤ 1
19 | O=C(c1ccc(N2CCC(OC3CCN(C4CCC4)CC3)CC2)cc1)C1CC1 [Example E91] | ≤ 1
20 | CC(=O)c1ccc(N2CCC(OC3CCN(C4CCC4)CC3)CC2)nc1 [Example E93, 1-(6-{4-[(1-Cyclobutyl-4-piperidinyl)oxy]-1-piperidinyl}-3-pyridinyl)ethanone] | ≤ 1
21 | Cc1ccc2cc(N3CCC(OC4CCN(C5CCC5)CC4)CC3)ccc2n1 [Example E94, 6-{4-[(1-Cyclobutyl-4-piperidinyl)oxy]-1-piperidinyl}-2-methylquinoline hydrochloride] | ≤ 1
22 | CC(C)N1CCC(OC2CCN(c3ccc(C(=O)OC(C)(C)C)nc3)CC2)CC1 [Example E95, 1,1-Dimethylethyl 5-(4-{[1-(1-methylethyl)-4-piperidinyl]oxy}-1-piperidinyl)-2-pyridinecarboxylate] | ≤ 1
23 | CC(C)(C)OC(=O)c1ccc(N2CCC(OC3CCN(C4CCC4)CC3)CC2)cn1 [Example E96, 1,1-Dimethylethyl 5-{4-[(1-cyclobutyl-4-piperidinyl)oxy]-1-piperidinyl}-2-pyridinecarboxylate] | ≤ 1
24 | CC(=O)c1ccc(N2CCC(OC3CCN(C(C)C)CC3)CC2)cc1 [Example E97, 1-[4-(4-{[1-(Methylethyl)-4-piperidinyl]oxy}-1-piperidinyl)phenyl]ethanone] | ≤ 1
25 | CC(=O)Nc1ccc(N2CCC(OC3CCN(C4CCC4)CC3)CC2)cc1F [Example E98, N-(4-{4-[(1-Cyclobutyl-4-piperidinyl)oxy]-1-piperidinyl}-2-fluorophenyl)acetamide hydrochloride] | ≤ 1
26 | CC[C@H](C)N1CCC(OC2CCN(c3ccc(C(C)=O)cc3)CC2)CC1 [Example E101] | ≤ 1
27 | CC[C@@H](C)N1CCC(OC2CCN(c3ccc(C(C)=O)cc3)CC2)CC1 [Example E102] | ≤ 1
28 | CC(=O)c1ccc(N2CCC(OC3CCN(CC4CC4)CC3)CC2)cc1 [Example E103, 1-[4-(4-{[1-(Cyclopropylmethyl)-4-piperidinyl]oxy}-1-piperidinyl)phenyl]ethanone] | < 10

Other lines, results leading:

Row | Ki [nM] | SMILES
29 | ≤ 1 | O=C(c1ccc(N2CCC(OC3CCN(C4CCC4)CC3)CC2)nc1)N1CCCC1 [Example E56]
30 | ≤ 1 | O=C(c1ccc(N2CCC(OC3CCN(C4CCC4)CC3)CC2)nc1)N1CCOCC1 [Example E57]
31 | ≤ 1 | CNC(=O)c1cccc(N2CCC(OC3CCN(C4CCC4)CC3)CC2)n1 [Example E62]
32 | ≤ 1 | CNC(=O)c1cnc(N2CCC(OC3CCN(C4CCC4)CC3)CC2)cn1 [Example E70, 5-(4-[(1-Cyclobutyl-4-piperidinyl)oxy]-1-piperidinyl}-N-methyl-2-pyrazinecarboxamide butanedioate]
33 | ≤ 1 | CCNC(=O)c1cnc(N2CCC(OC3CCN(C4CCC4)CC3)CC2)cn1 [Example E71]
34 | ≤ 1 | CCCNC(=O)c1cnc(N2CCC(OC3CCN(C4CCC4)CC3)CC2)cn1 [Example E72]
35 | ≤ 1 | CC(C)NC(=O)c1cnc(N2CCC(OC3CCN(C4CCC4)CC3)CC2)cn1 [Example E73]
36 | ≤ 1 | O=C(NC1CCC1)c1cnc(N2CCC(OC3CCN(C4CCC4)CC3)CC2)cn1 [Example E74]
37 | ≤ 1 | CNC(=O)c1cnc(N2CCC(OC3CCN(C(C)C)CC3)CC2)cn1 [Example E75]
38 | ≤ 1 | CCNC(=O)c1cnc(N2CCC(OC3CCN(C(C)C)CC3)CC2)cn1 [Example E76]
39 | ≤ 1 | CCCNC(=O)c1cnc(N2CCC(OC3CCN(C(C)C)CC3)CC2)cn1 [Example E77]
40 | ≤ 1 | CC(C)NC(=O)c1cnc(N2CCC(OC3CCN(C(C)C)CC3)CC2)cn1 [Example E78]
41 | < 0.316 | FC(F)(F)c1ccc(N2CCC(OC3CCN(C4CCC4)CC3)CC2)nn1 [Example E82, 3-{4-[(1-Cyclobutyl-4-piperidinyl)oxy]-1-piperidinyl}-6-(trifluoromethyl)pyridazine hydrochloride]
42 | < 0.316 | FC(F)(F)c1ncc(N2CCC(OC3CCN(C4CCC4)CC3)CC2)cn1 [Example E88, 5-{4-[(1-Cyclobutyl-4-piperidinyl)oxy]-1-piperidinyl}-2-(trifluoromethyl)pyrimidine]
